Test results published in patent US12240870B2, “Sequencing method for CAR T cell therapy” (Purdue Research Foundation, priority 2018, dated 2025).
pKd: −log10 of the molar value. Entries after “also recorded” stand apart in the source; their conditions may differ.

Legend:
[1] = system: unsorted E2-CAR-T cells; test: 3H-EC17 uptake by E2-CAR-T cells; set-up: species or system human; settings: unsorted E2-CAR-T cells (~24% EGFRt+, ~95:5 CD8/CD4), 2 hour at room temperature; read-out: Kd of 3H-EC17 binding to E2-CAR-T cells
Method: FIG. 10, Panel A: Kd values of ^3H-EC17 uptake by FR+ target cells after a 2 hour incubation at 37° C. (calculated from the numbers of molecules bound per cell). Panel B: Kd value of ^3H^−EC17 uptake by E2-CAR-T cells (˜24% EGFRt+, ˜95:5 CD8/CD4 ratio) after a 2 hour incubation at room temperate (calculated from total cell-associated radioactivity, DPM).
The EC17 has already been tested in the clinic for immunotherapy and optical imaging purposes. To directly quantify its bispecific binding affinities, ^3H-EC17 was synthesized and radioligand binding assays were carried out on KB and CHO-β cell lines representing FRα+ and FRβ+ target cells, respectively, and on unsorted EGFRt CAR-T cells representing the effector cells.

[2] = system: THP1-FRβ xenografts; test: THP1-FRβ AML intravenous xenograft, E2 CAR-T cells plus EC17; assay type: in vivo, NSG mice
Method: Panel A: Schematic diagrams to show dose scheduling of EC17 plus unsorted EGFRt CAR-T cells (˜6 million, day 0) in NSG mice with 1-day-old intravenous THP1-FRβ xenografts. Starting 3 days after CAR-T cell injection, EC17 was dosed in 3 different ways: EC17 SIW 500 nmol/kg ([…] on days 3, 10, 17, 24, 31, and 38), EC17 TIW 5/50/500 nmol/kg (3 repeats of 5/50/500 nmol/kg on Monday/Wednesday/Friday followed by a 9-day break, i.e. on days 3/5/7, 17/19/21 and 31/33/35), or EC17 M/Th/M_dose escalation on Monday/Thursday/Monday (3 escalation cycles at 5/10/100 nmol/kg in Cycle 1, 5/30/300 nmol/kg in Cycle 2, and 5/50/500 nmol/kg in Cycle 3, i.e. on days 3/6/10, 17/20/24, and 31/34/38). Panel B: Measurements of change in body weight (n=5). Panel C: Circulating CAR-T cells as human CD3ε+ EGFRt+ events found per 100 μL of mouse whole blood on a logarithmic scale on day 31. Panel D: Left bar graph: circulating tumor cells (GFP+) per 100 μL of whole blood in all cohorts measured at the end of study (day 39); Middle bar graph: THP1-FRβ infiltrated liver weights representing liver metastatic burden; Right bar graph: total tumor weights of all non-liver macrometastases. Panel E: Flow cytometric analysis of T-cell exhaustion markers, PD1, LAG3, TIM3, on preinfusion CAR-T cell product (triple-negative) and tumor-infitrating CAR-T cells isolated from liver metastases. A cardinal feature of fully exhausted T cells is co-expression of multiple inhibitory receptor markers (i.e. triple-positive).
One objective of this E2-CAR T-cell study was to test EC17/E2 CAR-T cell activity and related toxicity (e.g. sCRS) using multiple dosing regimens starting 3 days after CAR-T infusion. Three different EC17 dosing regimens include (a) once-a-week (SIW) at 500 nmol/kg, (b) “TIW-like” at 5, 50, and 500 nmol/kg on Monday/Wednesday/Friday with 9-day intervals, and (c) “TIW-like” at […] on Monday/Thursday/Monday with 7-day intervals.
THP-1-FRβ AML tumor cells were grown in folate-deficient RPMI 1640 with 5-10% FBS at 37° C. in a 5% CO2 humidified atmosphere. THP-1-FRβ tumor cells in serum-free folate-deficient RPMI1640 medium were i.v. injected at 5×10^6 cells per animal.
Anti-FITC E2 scFv-CAR T cells were frozen in a T-cell freezing medium. Upon arrival, vials of frozen CAR-T cells were immediately stored at −80° C. The CAR-T cells were quickly thawed at 37° C., washed twice with CAR-T cell culture medium, and used for animal injection at 6 million viable EGFRt+ E2 CAR-T cells (CD4/CD8 at ˜1:1) per animal. A small aliquot was taken on the day infusion for flow cytometric analysis of E2-CAR T-cell phenotypes.
EC17 and bis-EDA-FITC dosing solutions were prepared when dosing began by weighing appropriate amounts of each compound, reconstituting in PBS, pH 7.4, sterile filtering the drug solution through a 0.22 μm PVDF syringe filter, and freezing aliquots for each day of dosing at −20° C.
All EC17 doses were given towards the end of day (3-4 PM) to allow potential CRS (cytokine release syndrome) to develop overnight. In the following morning, animals were scored according to a CRS grading system (see below).
Daily body weight measurement on the days after EC17 dose is required. Attention was given to gross animal morphology and behavior. Euthanasia was performed if mice lose a lot of weight in a short duration or when mice are approaching moribund conditions per CRS grading system or neurotoxicity.
Whole blood cell analysis: Plasma was removed from predetermined volumes of whole EDTA treated blood and RBCs were lysed with RBC lysis solution. […]

Q: How did the pKd [1] turn out when `Nc1nc2ncc(CNc3ccc(C(=O)N[C@@H](CCC(=O)NCCNC(=S)Nc4ccc(-c5c6ccc(=O)cc-6oc6cc(O)ccc56)c(C(=O)O)c4)C(=O)O)cc3)nc2c(=O)[nH]1` [EC17, FA-(γ)-ethylenediamine-FITC] was run?
A: ~6.89

Q: What about the non-liver macrometastases ([2]; EC17 SIW 500 nmol/kg) of the same compound?
A: successfully controlled non-liver macrometastases

Q: And the CRS grade ([2]; EC17 SIW 500 nmol/kg (Cohort 3))?
A: 1-2

Q: What about the non-liver macrometastases ([2]; EC17 TIW 5/50/500 nmol/kg on/off) of the same compound?
A: successfully controlled non-liver macrometastases

Q: And the “overall anti-tumor activity / THP1-FRβ tumor burden, comparison of regimens” value ([2]; EC17 TIW 5/50/500 nmol/kg on/off (Cohort 4))?
A: best anti-tumor activity among the three different EC17 dose schedules; also recorded: trended to be the best regimen for reducing overall THP1-FRβ tumor burden

Q: What about the “circulating THP1-FRβ tumor cells (GFP+) per 100 μL whole blood” value ([2]; all three EC17 dosing regimens, day 39) of the same compound?
A: significant reduction in circulating THP1 cell burden; also recorded: effectively reduced circulating THP1-FRβ tumor cells in the blood

Q: And the “severe CRS (grades ≥3)” value ([2]; any EC17 treated cohort (SIW, TIW, M/Th/M))?
A: no severe CRS

Q: What about the body weight loss ([2]; ~6 million E2 CAR-T + EC17 SIW 500 nmol/kg (Cohort 3)) of the same compound?
A: EC17 dose-dependent body weight loss after each EC17 dose; also recorded: some body weight loss

Q: What about the body weight loss ([2]; ~6 million E2 CAR-T + EC17 TIW 5/50/500 nmol/kg M/W/F, 9-day break (Cohort 4)) of the same compound?
A: mildest body weight loss among three treatment groups; also recorded: least body weight loss
